For 6 molecules, Dmax and DC50 results are on record in patent US11986532B2 (Arvinas Operations, Inc., priority 2021, dated 2024).

The assay concerns the target T1, BCL6 (Homo sapiens, UniProt P41182).
T1 construct: endogenous in cells; host or cells: T47D breast cancer epithelial cells
Description: Immunofluorescence protocol for high content imaging of BCL6 (degradation) in T47D cells, 3 days compound treatment. Type of assay: cell-based. The note with it: for Dmax: read-out: Mean Dmax (%)** category; for DC50: read-out: Mean DC50 (nM)* category. The method in brief: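 Remaining BCL6 in breast cancer T47D cells was measured by high-content immunofluorescence imaging after 3 days of treatment with serially diluted compound (top 0.1 or 1 μM). Nuclei were stained with Hoechst and cells with CellMask.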

Setting [1] is: T47D cells, 3 days compound treatment.

Where two headings read alike, the source gives them in different places.

As to `CNC(=O)COc1cc2cc(Nc3nc(N4CCN(CC5CCC6(CC5)CN(c5ccc7c(c5)CN(C5CCC(=O)NC5=O)C7=O)C6)CC4)ncc3Cl)ccc2n(C(C)C)c1=O` (stereo not drawn) [Compound 305, 2-{[6-({5-chloro-2-[4-({2-[2-(2,6-dioxopiperidin-3-yl)-1-oxo-2,3-dihydro-1H-isoindol-5-yl]-2-azaspiro[3.5]nonan-7-yl}methyl)piperazin-1-yl]pyrimidin-4-yl}amino)-2-oxo-1-(propan-2-yl)-1,2-dihydroquinolin-3-yl]oxy}-N-methylacetamide], the DC50 was under 10 nM. Also, the greatest degradation seen (Dmax) (T47D) was in the range of 50 to 70%.

Consider `CNC(=O)COc1cc2cc(Nc3nc(N4CCCC4)ncc3Cl)ccc2n(CCOc2ccc3c(c2)C(=O)N(C2CCC(=O)NC2=O)C3=O)c1=O` (stereo not drawn) [Compound 32, 2-[(6-{[5-chloro-2-(pyrrolidin-1-yl)pyrimidin-4-yl]amino}-1-(2-{[2-(2,6-dioxopiperidin-3-yl)-1,3-dioxo-2,3-dihydro-1H-isoindol-5-yl]oxy}ethyl)-2-oxo-1,2-dihydroquinolin-3-yl)oxy]-N-methylacetamide], for which, under setting [1], the half-maximal degradation concentration (DC50) lay within 10 to 50 nM and the Dmax is 50 to 70%.

As for `CNC(=O)COc1cc2cc(Nc3nc(N4CCC(CN5CCC6(CC5)CN(c5cccc7c5C(=O)N(C5CCC(=O)NC5=O)C7=O)C6(C)C)CC4)ncc3Cl)ccc2n(C(C)C)c1=O` (stereo not drawn) [Compound 337, 2-{[6-({5-chloro-2-[4-({2-[2-(2,6-dioxopiperidin-3-yl)-1,3-dioxo-2,3-dihydro-1H-isoindol-4-yl]-1,1-dimethyl-2,7-diazaspiro[3.5]nonan-7-yl}methyl)piperidin-1-yl]pyrimidin-4-yl}amino)-2-oxo-1-(propan-2-yl)-1,2-dihydroquinolin-3-yl]oxy}-N-methylacetamide], the half-maximal degradation concentration (DC50) was under 10 nM. Further, the maximal degradation (Dmax) (T47D) is 50 to 70%.

In the case of `CNC(=O)COc1cc2cc(Nc3nc(N4CCC(CN5CCC6(CC5)CC5(CN(c7ccc8c(c7)C(=O)N(C7CCC(=O)NC7=O)C8=O)C5)C6)CC4)ncc3Cl)ccc2n(C(C)C)c1=O` (stereo not drawn) [Compound 373, 2-{[6-({5-chloro-2-[4-({2-[2-(2,6-dioxopiperidin-3-yl)-1,3-dioxo-2,3-dihydro-1H-isoindol-5-yl]-2,9-diazadispiro[3.1.5^6.1^4]dodecan-9-yl}methyl)piperidin-1-yl]pyrimidin-4-yl}amino)-2-oxo-1-(propan-2-yl)-1,2-dihydroquinolin-3-yl]oxy}-N-methylacetamide], the half-maximal degradation concentration (DC50) is under 10 nM. Further, for the setting “T47D”, the greatest degradation seen (Dmax) was at least 70%.

For `CNC(=O)COc1cc2cc(Nc3nc(N4CCC(CN5CCC6(CC5)CN(c5ccc7c(c5)C(=O)N(C5CCC(=O)NC5=O)C7=O)C6(C)C)CC4)ncc3Cl)ccc2n(C(C)C)c1=O` (stereo not drawn) [Compound 133, 2-{[6-({5-chloro-2-[4-({2-[2-(2,6-dioxopiperidin-3-yl)-1,3-dioxo-2,3-dihydro-1H-isoindol-5-yl]-1,1-dimethyl-2,7-diazaspiro[3.5]nonan-7-yl}methyl)piperidin-1-yl]pyrimidin-4-yl}amino)-2-oxo-1-(propan-2-yl)-1,2-dihydroquinolin-3-yl]oxy}-N-methylacetamide], under setting [1], the half-maximal degradation concentration (DC50) is under 10 nM and the Dmax was 50 to 70%.

Turning to `CNC(=O)COc1cc2cc(Nc3nc(N4CCC(O[C@H]5C[C@H](N6C[C@H](C)N(c7ccc8c(c7)CN(C7CCC(=O)NC7=O)C8=O)[C@@H](C)C6)C5)CC4)ncc3Cl)ccc2n(C(C)C)c1=O` (relative stereo) [Compound 180, 2-({6-[(5-chloro-2-{4-[(1r,3r)-3-[(3R*,5R*)-4-[2-(2,6-dioxopiperidin-3-yl)-1-oxo-2,3-dihydro-1H-isoindol-5-yl]-3,5-dimethylpiperazin-1-yl]cyclobutoxy]piperidin-1-yl}pyrimidin-4-yl)amino]-2-ox0-1-(propan-2-yl)-1,2-dihydroquinolin-3-yl}oxy)-N-methylacetamide], under setting [1], the half-maximal degradation concentration (DC50) was under 10 nM and the maximal degradation (Dmax) was at least 70%.
